Reference: patent publication US6737383B1, “Herbicidal oxadiazolidines” (priority 1999, dated 2004)

Tests used:
[1] = system: bedstraw; assay: Test B pre/postemergence bedstraw; format: in vivo, Galium aparine
In short: (§1)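 Test chemicals in a non-phytotoxic solvent mixture with surfactant were sprayed preemergence onto planted seeds and postemergence onto plants 2 to 18 cm tall (1- to 4-leaf stage). After twelve to sixteen days in a greenhouse, injury was visually rated against untreated controls from 0 (no effect) to 10 (complete control).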

[2] = system: blackgrass; assay: Test B pre/postemergence blackgrass; format: in vivo, Alopecurus myosuroides
In short: as §1

[3] = system: surinam grass; assay: Test B pre/postemergence surinam grass; format: in vivo, Brachiaria decumbens
In short: as §1

[4] = system: cocklebur; assay: Test B pre/postemergence cocklebur; format: in vivo, Xanthium strumarium
In short: as §1

[5] = system: corn; assay: Test B pre/postemergence corn; format: in vivo, Zea mays
In short: as §1

[6] = system: crabgrass; assay: Test B pre/postemergence crabgrass; format: in vivo, Digitaria sanguinalis
In short: as §1

[7] = system: giant foxtail; assay: Test B pre/postemergence giant foxtail; format: in vivo, Setaria faberii
In short: as §1

[8] = system: pigweed; assay: Test B pre/postemergence pigweed; format: in vivo, Amaranthus retroflexus
In short: as §1

[9] = system: soybean; assay: Test B pre/postemergence soybean; format: in vivo, Glycine max
In short: as §1

[10] = system: sugar beet; assay: Test B pre/postemergence sugar beet; format: in vivo, Beta vulgaris
In short: as §1

[11] = system: velvetleaf; assay: Test B pre/postemergence velvetleaf; format: in vivo, Abutilon theophrasti
In short: as §1

[12] = system: wheat; assay: Test B pre/postemergence wheat; format: in vivo, Triticum aestivum
In short: as §1

[13] = system: wild oat; assay: Test B pre/postemergence wild oat; format: in vivo, Avena fatua
In short: as §1

[14] = system: purple nutsedge; assay: Test B pre/postemergence purple nutsedge; format: in vivo, Cyperus rotundus
In short: as §1

[15] = system: rice; assay: Test B flood test rice; format: in vivo, Oryza sativa
In short: (§2)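 Read-out is a visual response score from 0 (no effect) to 10 (complete control), assigned by comparison with untreated controls. Treatment was applied at the 2-leaf stage, and plants stayed in the greenhouse for twelve to sixteen days before scoring.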

[16] = system: duck salad; assay: Test B flood test duck salad; format: in vivo, Heteranthera limosa
In short: as §2

[17] = Preemergence, Rate 62 g/ha, scale of 0 to 10 where 0 is no effect and 10 is complete control
[18] = Preemergence, Rate 250 g/ha, scale 0 to 10, 0 is no effect, 10 is complete control
[19] = Preemergence, Rate 500 g/ha, scale 0 to 10 (0 no effect, 10 complete control)
[20] = Rate 62 g/ha, Postemergence, scale of 0 to 10 where 0 is no effect and 10 is complete control
[21] = Rate 125 g/ha, Postemergence, scale 0 to 10
[22] = Rate 500 g/ha, Postemergence, scale 0 to 10
[23] = Preemergence, Rate 125 g/ha, 0 is no effect, 10 is complete control
[24] = Rate 62 g/ha, headed Pre-emergence (flood test species), scale 0 to 10 (0 no effect, 10 complete control)
[25] = Rate 125 g/ha, Pre-emergence, flood test species, scale 0 to 10 where 0 is no effect and 10 is complete control
[26] = Rate 250 g/ha, Pre-emergence, flood-test species, scale 0 to 10, 0 is no effect, 10 is complete control
[27] = Rate 500 g/ha, headed Pre-emergence (flood test species), scale 0 to 10 (0 no effect, 10 complete control)

CCN(C(=O)n1oc(=O)n(C(C)C)c1=O)c1nncs1 [Compound 190]
Bedstraw plant response rating [1, 17]: 0 | Bedstraw plant response rating [1, 18]: 0 | Bedstraw plant response rating [1, 19]: 4 | Bedstraw plant response rating [1, 20]: 0 | Bedstraw plant response rating [1, 21]: 0 | Plant response rating (0 to 10; 0 is no effect, 10 is complete control), Bedstraw ([1]; Rate 250 g/ha, Postemergence): 0 | Bedstraw plant response rating [1, 22]: 0 | Blackgrass plant response rating [2, 17]: 0 | Blackgrass plant response rating (0 to 10 scale) [2, 23]: 0 | Blackgrass plant response rating [2, 18]: 0 | Blackgrass plant response rating [2, 19]: 3 | Blackgrass plant response rating [2, 20]: 0 | Blackgrass plant response rating [2, 21]: 0 | Plant response rating (0 to 10; 0 is no effect, 10 is complete control), Blackgrass ([2]; Rate 250 g/ha, Postemergence): 0 | Blackgrass plant response rating [2, 22]: 0 | B. signalgrass plant response rating [3, 17]: 0 | B. signalgrass plant response rating (0 to 10 scale) [3, 23]: 0 | B. signalgrass plant response rating [3, 18]: 0 | B. signalgrass plant response rating [3, 19]: 0 | B. signalgrass plant response rating [3, 20]: 0 | B. signalgrass plant response rating ([3]; Rate 125 g/ha, Postemergence, scale 0 (no effect) to 10 (complete control)): 0 | Plant response rating, B. signalgrass ([3]; Rate 250 g/ha, Postemergence, scale 0 to 10, 0 is no effect, 10 is complete control): 0 | B. signalgrass plant response rating ([3]; Rate 500 g/ha, Postemergence, scale 0 to 10, 0 no effect, 10 complete control): 0 | Cocklebur plant response rating [4, 17]: 0 | Cocklebur plant response rating (0 to 10 scale) [4, 23]: 0 | Cocklebur plant response rating [4, 18]: 0 | Cocklebur plant response rating [4, 19]: 0 | Cocklebur plant response rating [4, 20]: 0 | Cocklebur plant response rating [4, 21]: 0 | Plant response rating (0 to 10; 0 is no effect, 10 is complete control), Cocklebur ([4]; Rate 250 g/ha, Postemergence): 0 | Cocklebur plant response rating [4, 22]: 0 | Corn plant response rating [5, 17]: 0 | Corn plant response rating (0 to 10 scale) [5, 23]: 0 | Corn plant response rating [5, 18]: 0 | Corn plant response rating [5, 19]: 0 | Corn plant response rating [5, 20]: 0 | Corn plant response rating [5, 21]: 0 | Plant response rating (0 to 10; 0 is no effect, 10 is complete control), Corn ([5]; Rate 250 g/ha, Postemergence): 0 | Corn plant response rating [5, 22]: 0 | Crabgrass plant response rating [6, 17]: 0 | Crabgrass plant response rating (0 to 10 scale) [6, 23]: 0 | Crabgrass plant response rating [6, 18]: 0 | Crabgrass plant response rating [6, 19]: 0 | Crabgrass plant response rating [6, 20]: 0 | Crabgrass plant response rating [6, 21]: 0 | Plant response rating (0 to 10; 0 is no effect, 10 is complete control), Crabgrass ([6]; Rate 250 g/ha, Postemergence): 0 | Crabgrass plant response rating [6, 22]: 0 | Giant foxtail plant response rating [7, 17]: 0 | Giant foxtail plant response rating (0 to 10 scale) [7, 23]: 0 | Giant foxtail plant response rating [7, 18]: 0 | Giant foxtail plant response rating [7, 19]: 0 | Giant foxtail plant response rating [7, 20]: 0 | Giant foxtail plant response rating [7, 21]: 0 | Plant response rating (0 to 10; 0 is no effect, 10 is complete control), Giant foxtail ([7]; Rate 250 g/ha, Postemergence): 0 | Giant foxtail plant response rating [7, 22]: 0 | Redroot pigweed plant response rating [8, 17]: 0 | Redroot pigweed plant response rating (0 to 10 scale) [8, 23]: 0 | Redroot pigweed plant response rating [8, 18]: 0 | Redroot pigweed plant response rating [8, 19]: 0 | Redroot pigweed plant response rating [8, 20]: 0 | Redroot pigweed plant response rating [8, 21]: 0 | Plant response rating (0 to 10; 0 is no effect, 10 is complete control), Redroot pigweed ([8]; Rate 250 g/ha, Postemergence): 0 | Redroot pigweed plant response rating [8, 22]: 0 | Soybean plant response rating [9, 17]: 0 | Soybean plant response rating (0 to 10 scale) [9, 23]: 0 | Soybean plant response rating [9, 18]: 0 | Soybean plant response rating [9, 19]: 0 | Soybean plant response rating [9, 20]: 0 | Soybean plant response rating [9, 21]: 0 | Plant response rating (0 to 10; 0 is no effect, 10 is complete control), Soybean ([9]; Rate 250 g/ha, Postemergence): 0 | Soybean plant response rating [9, 22]: 0 | Sugarbeets plant response rating [10, 17]: 0 | Sugarbeets plant response rating (0 to 10 scale) [10, 23]: 0 | Sugarbeets plant response rating [10, 18]: 0 | Sugarbeets plant response rating [10, 19]: 0 | Sugarbeets plant response rating [10, 20]: 0 | Sugarbeets plant response rating [10, 21]: 0 | Plant response rating (0 to 10; 0 is no effect, 10 is complete control), Sugarbeets ([10]; Rate 250 g/ha, Postemergence): 0 | Sugarbeets plant response rating [10, 22]: 0 | Velvetleaf plant response rating [11, 17]: 0 | Velvetleaf plant response rating [11, 18]: 0 | Velvetleaf plant response rating [11, 19]: 0 | Velvetleaf plant response rating [11, 20]: 0 | Velvetleaf plant response rating [11, 21]: 0 | Plant response rating (0 to 10; 0 is no effect, 10 is complete control), Velvetleaf ([11]; Rate 250 g/ha, Postemergence): 0 | Wheat plant response rating [12, 17]: 0 | Wheat plant response rating [12, 18]: 0 | Wheat plant response rating [12, 19]: 0 | Wheat plant response rating [12, 20]: 0 | Wheat plant response rating [12, 21]: 0 | Plant response rating (0 to 10; 0 is no effect, 10 is complete control), Wheat ([12]; Rate 250 g/ha, Postemergence): 0 | Wild oats plant response rating [13, 17]: 0 | Wild oats plant response rating [13, 18]: 0 | Wild oats plant response rating [13, 19]: 0 | Wild oats plant response rating [13, 20]: 0 | Wild oats plant response rating [13, 21]: 0 | Plant response rating (0 to 10; 0 is no effect, 10 is complete control), Wild oats ([13]; Rate 250 g/ha, Postemergence): 0 | Nutsedge plant response rating [14, 17]: 0 | Nutsedge plant response rating [14, 18]: 0 | Nutsedge plant response rating [14, 19]: 0 | Nutsedge plant response rating [14, 20]: 0 | Nutsedge plant response rating [14, 21]: 0 | Plant response rating (0 to 10; 0 is no effect, 10 is complete control), Nutsedge ([14]; Rate 250 g/ha, Postemergence): 0 | Nutsedge plant response rating [14, 22]: 0 | Rice plant response rating [15, 24]: 0 | Rice plant response rating [15, 25]: 0 | Rice plant response rating [15, 26]: 0 | Plant response rating, Rice [15, 27]: 0 | Ducksalad plant response rating [16, 24]: 0 | Ducksalad plant response rating [16, 25]: 0 | Ducksalad plant response rating [16, 26]: 0 | Plant response rating, Ducksalad [16, 27]: 0
